By IC50 is commonly meant the concentration at which inhibition is half-maximal. Low readings indicate greater potency, high ones weaker potency.

Data on 17 compounds can be found in ChEMBL document CHEMBL3351808, “Thiophenes, polyacetylenes and terpenes from the aerial parts of Eclipata prostrate” (Bioorg Med Chem, 2014).

Active and inactive are the calls of the source. The rule behind the calls is not given here.

For assay [1], the target named is T1, Nuclear factor NF-kappa-B complex (Homo sapiens) (UniProt Q00653+P19838+Q04206). As to the kind of experiment: Inhibition of NFkappaB (unknown origin) expressed in LPS-stimulated HEK293-NF-kappaB-luc cells assessed as luminescence signals measured by relative light units at 100 ug/mL pre-treated for 4 hrs before LPS challenge for 24 hrs by luciferase assay. Format: cell-based.

Assay [2] addresses T1, Nuclear factor NF-kappa-B complex (Homo sapiens). As to the kind of experiment: Inhibition of NFkappaB (unknown origin) expressed in LPS-stimulated HEK293-NF-kappaB-luc cells assessed as luminescence signals measured by relative light units at 1 ug/mL pre-treated for 4 hrs before LPS challenge for 24 hrs by luciferase assay. In kind it is cell-based.
Assay [3] has the same target. Briefly: Inhibition of NFkappaB (unknown origin) expressed in LPS-stimulated HEK293-NF-kappaB-luc cells assessed as luminescence signals measured by relative light units at 10 ug/mL pre-treated for 4 hrs before LPS challenge for 24 hrs by luciferase assay. Format: cell-based.
The target is the same in assay [4]. As to the kind of experiment: Inhibition of NFkappaB (unknown origin) expressed in LPS-stimulated HEK293-NF-kappaB-luc cells assessed as luminescence signals measured by relative light units at 500 ug/mL pre-treated for 4 hrs before LPS challenge for 24 hrs by luciferase assay. Format: cell-based.
The target of assay [5] is Dipeptidyl peptidase 4 (Homo sapiens, UniProt P27487). As to the kind of experiment: Inhibition of DPP4 in human plasma using Gly-Pro-AMC substrate incubated for 20 mins by fluorometry.
Dipeptidyl peptidase 4, sequence (P27487 whole entry): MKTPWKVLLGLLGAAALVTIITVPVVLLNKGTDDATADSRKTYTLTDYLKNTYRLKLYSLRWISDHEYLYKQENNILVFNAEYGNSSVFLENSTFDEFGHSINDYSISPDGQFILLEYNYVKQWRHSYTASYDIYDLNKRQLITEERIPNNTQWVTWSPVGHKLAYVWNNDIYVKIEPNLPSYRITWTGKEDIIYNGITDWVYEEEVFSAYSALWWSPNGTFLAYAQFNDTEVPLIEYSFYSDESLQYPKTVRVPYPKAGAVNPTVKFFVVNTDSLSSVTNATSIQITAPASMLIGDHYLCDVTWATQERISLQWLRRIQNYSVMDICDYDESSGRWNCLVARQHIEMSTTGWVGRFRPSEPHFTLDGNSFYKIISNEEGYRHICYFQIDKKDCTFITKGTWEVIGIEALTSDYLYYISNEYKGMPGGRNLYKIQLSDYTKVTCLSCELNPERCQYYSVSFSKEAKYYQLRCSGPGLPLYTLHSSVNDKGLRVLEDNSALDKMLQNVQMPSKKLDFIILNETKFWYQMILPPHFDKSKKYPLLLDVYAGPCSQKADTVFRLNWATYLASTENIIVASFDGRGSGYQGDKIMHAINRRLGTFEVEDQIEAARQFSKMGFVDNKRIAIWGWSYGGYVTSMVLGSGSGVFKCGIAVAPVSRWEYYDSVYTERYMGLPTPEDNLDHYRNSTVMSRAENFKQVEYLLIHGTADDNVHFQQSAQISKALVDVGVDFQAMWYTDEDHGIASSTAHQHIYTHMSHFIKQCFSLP

T1 sequence (P19838 whole entry, looked up): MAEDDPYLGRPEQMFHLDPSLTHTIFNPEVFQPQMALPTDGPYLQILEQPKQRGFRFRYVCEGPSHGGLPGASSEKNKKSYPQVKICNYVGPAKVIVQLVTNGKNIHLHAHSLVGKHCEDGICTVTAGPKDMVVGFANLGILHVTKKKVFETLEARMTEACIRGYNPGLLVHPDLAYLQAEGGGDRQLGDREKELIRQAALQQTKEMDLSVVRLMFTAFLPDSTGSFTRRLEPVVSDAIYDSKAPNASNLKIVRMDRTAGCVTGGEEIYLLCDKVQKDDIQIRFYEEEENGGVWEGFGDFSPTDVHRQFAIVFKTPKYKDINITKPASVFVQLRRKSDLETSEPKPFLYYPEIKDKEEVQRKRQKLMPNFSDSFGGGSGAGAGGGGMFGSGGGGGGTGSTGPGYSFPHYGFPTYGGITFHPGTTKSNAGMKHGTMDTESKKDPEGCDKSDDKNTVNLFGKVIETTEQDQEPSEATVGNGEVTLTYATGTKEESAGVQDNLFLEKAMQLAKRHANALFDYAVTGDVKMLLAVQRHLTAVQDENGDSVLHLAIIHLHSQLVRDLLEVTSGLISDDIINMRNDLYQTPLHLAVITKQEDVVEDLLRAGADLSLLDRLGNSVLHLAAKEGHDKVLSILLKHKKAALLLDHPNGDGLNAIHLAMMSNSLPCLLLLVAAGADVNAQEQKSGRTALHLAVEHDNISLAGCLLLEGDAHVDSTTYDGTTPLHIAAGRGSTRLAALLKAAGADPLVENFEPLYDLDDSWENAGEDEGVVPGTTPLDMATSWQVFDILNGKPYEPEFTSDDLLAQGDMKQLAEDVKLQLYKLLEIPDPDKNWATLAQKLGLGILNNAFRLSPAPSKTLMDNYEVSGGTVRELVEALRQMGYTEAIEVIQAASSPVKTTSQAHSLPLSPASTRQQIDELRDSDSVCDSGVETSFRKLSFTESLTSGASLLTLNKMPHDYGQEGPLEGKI
T1 sequence (Q00653 whole entry, looked up): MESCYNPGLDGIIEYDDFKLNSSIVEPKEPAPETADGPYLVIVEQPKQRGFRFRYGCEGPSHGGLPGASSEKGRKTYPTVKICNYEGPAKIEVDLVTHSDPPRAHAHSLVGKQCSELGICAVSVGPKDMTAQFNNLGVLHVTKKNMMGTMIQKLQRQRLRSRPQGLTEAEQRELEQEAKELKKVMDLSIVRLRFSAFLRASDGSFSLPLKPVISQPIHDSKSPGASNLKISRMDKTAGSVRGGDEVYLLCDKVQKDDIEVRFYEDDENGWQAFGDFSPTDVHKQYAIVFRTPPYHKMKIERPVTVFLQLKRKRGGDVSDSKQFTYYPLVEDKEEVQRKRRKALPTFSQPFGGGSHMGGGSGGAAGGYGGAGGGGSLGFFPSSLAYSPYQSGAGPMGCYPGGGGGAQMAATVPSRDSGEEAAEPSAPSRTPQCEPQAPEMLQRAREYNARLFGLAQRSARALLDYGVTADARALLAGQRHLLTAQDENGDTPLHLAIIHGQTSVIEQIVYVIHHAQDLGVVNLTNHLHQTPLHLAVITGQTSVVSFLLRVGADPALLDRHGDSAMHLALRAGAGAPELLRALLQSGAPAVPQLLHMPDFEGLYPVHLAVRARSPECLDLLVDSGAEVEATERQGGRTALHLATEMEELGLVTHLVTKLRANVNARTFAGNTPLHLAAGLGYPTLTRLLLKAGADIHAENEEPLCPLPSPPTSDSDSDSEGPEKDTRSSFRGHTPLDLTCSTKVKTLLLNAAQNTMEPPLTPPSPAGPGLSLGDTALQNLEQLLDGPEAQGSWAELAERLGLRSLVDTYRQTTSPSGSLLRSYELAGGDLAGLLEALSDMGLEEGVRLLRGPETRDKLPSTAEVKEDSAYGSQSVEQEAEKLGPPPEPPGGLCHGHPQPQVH
T1 sequence (Q04206 whole entry, looked up): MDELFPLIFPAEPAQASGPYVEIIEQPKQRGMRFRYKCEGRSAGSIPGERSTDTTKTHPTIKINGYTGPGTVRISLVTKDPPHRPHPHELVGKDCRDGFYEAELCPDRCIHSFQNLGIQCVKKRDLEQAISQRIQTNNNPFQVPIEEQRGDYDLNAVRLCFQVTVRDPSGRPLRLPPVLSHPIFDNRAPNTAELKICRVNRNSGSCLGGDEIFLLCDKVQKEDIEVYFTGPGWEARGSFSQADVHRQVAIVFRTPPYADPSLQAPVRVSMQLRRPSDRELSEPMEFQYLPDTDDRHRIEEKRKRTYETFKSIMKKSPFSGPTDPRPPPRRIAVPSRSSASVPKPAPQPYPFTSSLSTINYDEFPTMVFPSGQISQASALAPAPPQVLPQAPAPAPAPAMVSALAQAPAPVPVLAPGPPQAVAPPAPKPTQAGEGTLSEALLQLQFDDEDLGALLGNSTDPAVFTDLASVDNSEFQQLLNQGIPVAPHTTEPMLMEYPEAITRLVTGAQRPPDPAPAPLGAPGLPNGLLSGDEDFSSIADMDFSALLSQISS

Turning to `CC(C)[C@H]1C[C@H]2O[C@@]2(C)[C@@H](O)[C@H]1O[C@@H]1O[C@H](CO)[C@@H](O)[C@H](O)[C@H]1O` (relative stereo), the result in assay [1], in assay [2], in assay [3] and in assay [4] was inactive.

As for `CC1(C)CC[C@]2(C(=O)O[C@@H]3O[C@H](CO)[C@@H](O)[C@H](O)[C@H]3O)CC[C@]3(C)C(=CC[C@@H]4[C@@]5(C)CC[C@H](O[C@@H]6O[C@H](CO)[C@@H](O)[C@H](O)[C@H]6O)C(C)(C)[C@@H]5CC[C@]43C)[C@@H]2C1`, the outcome in assay [1], in assay [2], in assay [3] and in assay [4] was inactive.

Take `CC1(C)CC[C@]2(C(=O)O[C@@H]3O[C@H](CO)[C@@H](O)[C@H](O)[C@H]3O)[C@@H](O)C[C@]3(C)C(=CC[C@@H]4[C@@]5(C)CC[C@H](O[C@@H]6O[C@H](CO)[C@@H](O)[C@H](O)[C@H]6O)C(C)(C)[C@@H]5CC[C@]43C)[C@@H]2C1`: the result in assay [1], in assay [2], in assay [3] and in assay [4] was inactive.

As for `C[C@]12CCC(=O)C=C1CC[C@@H]1[C@@H]2[C@@H](O)C[C@@]2(C)[C@H]1CC[C@]2(O)C(=O)CO`, the RLU in assay [1] amounted to 0.45; in assay [2], 0.15; in assay [3], 0.32; in assay [4], 0.64.

As to `CC1(C)[C@@H](O[C@@H]2O[C@H](CO)[C@@H](O)[C@H](O)[C@H]2O)CC[C@]2(C)[C@H]3CC=C4[C@@H]5C[C@](C)(CO)CC[C@]5(C)[C@@H](O)C[C@@]4(C)[C@]3(C)CC[C@@H]12`, the outcome in assay [1], in assay [2], in assay [3] and in assay [4] was inactive.

Regarding `CC1(C)CC[C@]2(C(=O)O[C@@H]3O[C@H](CO)[C@@H](O)[C@H](O)[C@H]3O)[C@H](O)C[C@]3(C)C(=CC[C@@H]4[C@@]5(C)CC[C@H](O[C@@H]6O[C@H](CO)[C@@H](O)[C@H](O)[C@H]6OS(=O)(=O)O)C(C)(C)[C@@H]5CC[C@]43C)[C@@H]2C1`, the RLU was 0.23 in assay [1], -0.01 in assay [2], 0.16 in assay [3] and 0.07 in assay [4].

In the case of `C=CC(O)C(/C=C/C#CC#CC#CC)O[C@@H]1O[C@H](CO)[C@@H](O)[C@H](O)[C@H]1O` (some centres not stated), in assay [5], the IC50 is above 100 µM.

Consider `C=C(C)[C@@H]1CC[C@]2(C(=O)O[C@@H]3O[C@H](CO)[C@@H](O)[C@H](O)[C@H]3O)CC[C@]3(C)[C@H](CC[C@@H]4[C@@]5(C)CC[C@H](O[C@@H]6O[C@H](CO)[C@@H](O)[C@H](O)[C@H]6O)C(C)(C)[C@@H]5CC[C@]43C)[C@@H]12`, for which the outcome in assay [1], in assay [2], in assay [3] and in assay [4] was inactive.

As to `CC1(C)CC[C@]2(C(=O)O[C@@H]3O[C@H](CO)[C@@H](O)[C@H](O)[C@H]3O)[C@H](O)C[C@]3(C)C(=CC[C@@H]4[C@@]5(C)CC[C@H](O[C@@H]6O[C@H](CO)[C@@H](O)[C@H](O)[C@H]6O[C@@H]6O[C@H](CO)[C@@H](O)[C@H](O)[C@H]6O)C(C)(C)[C@@H]5CC[C@]43C)[C@@H]2C1`, the outcome in assay [1], in assay [2], in assay [3] and in assay [4] was inactive.

For `CC#CC#CC#C/C=C/C=C/C(CCO)O[C@@H]1O[C@H](CO)[C@@H](O)[C@H](O)[C@H]1O` (some centres not stated), the IC50 in assay [5] was above 100 µM.

As for `C[C@H]1[C@H]2[C@H]3CC[C@@H]4[C@@]5(C)CC[C@H](O[C@@H]6O[C@H](CO)[C@@H](O)[C@H](O)[C@H]6O)C(C)(C)[C@@H]5CC[C@@]4(C)[C@]3(C)CC[C@@]2(CO)CC[C@]1(C)O`, the RLU in assay [1] came to 0.47; in assay [2], 0.18; in assay [3], 0.24; in assay [4], 0.5.

Turning to `C[C@H]1[C@H]2[C@H]3CC[C@@H]4[C@@]5(C)CC[C@H](O[C@@H]6O[C@H](CO)[C@@H](O)[C@H](O)[C@H]6O)C(C)(C)[C@@H]5CC[C@@]4(C)[C@]3(C)C[C@H](O)[C@@]2(C)CC[C@]1(C)O`, the result in assay [1], in assay [2], in assay [3] and in assay [4] was inactive.

`CC1(C)CC[C@]2(C(=O)O[C@@H]3O[C@H](CO)[C@@H](O)[C@H](O)[C@H]3O)CC[C@]3(C)C(=CC[C@@H]4[C@@]5(C)CC[C@H](O[C@@H]6O[C@H](CO)[C@@H](O)[C@H](O)[C@H]6O[C@@H]6O[C@H](CO)[C@@H](O)[C@H](O)[C@H]6O)C(C)(C)[C@@H]5CC[C@]43C)[C@@H]2C1`: the RLU in assay [1] came to 0.47; in assay [2], 0.09; in assay [3] it was 0.23; in assay [4], 0.59.

Consider `CC(C)[C@H]1C[C@H]2O[C@@]2(C)[C@@H](O)[C@H]1O[C@@H]1O[C@H](COC(=O)/C=C/c2ccc(O)c(O)c2)[C@@H](O)[C@H](O)[C@H]1O` (relative stereo), for which the result in assay [1], in assay [2], in assay [3] and in assay [4] was inactive.

On to `CC1(C)C=C2[C@H]3CC[C@@H]4[C@@]5(C)CC[C@H](O[C@@H]6O[C@H](CO)[C@@H](O)[C@H](O)[C@H]6O[C@@H]6O[C@H](CO)[C@@H](O)[C@H](O)[C@H]6O)C(C)(C)[C@@H]5CC[C@@]4(C)[C@]3(C)CC[C@@]2(C(=O)O[C@@H]2O[C@H](CO)[C@@H](O)[C@H](O)[C@H]2O)CC1`, for which the RLU in assay [1] is 0.49; in assay [2], 0.01; in assay [3], 0.06; in assay [4], 0.72.

For `CC1(C)CC[C@]2(C(=O)O[C@@H]3O[C@H](CO)[C@@H](O)[C@H](O)[C@H]3O)[C@H](O)C[C@]3(C)C(=CC[C@@H]4[C@@]5(C)CC[C@H](O[C@@H]6O[C@H](CO)[C@@H](O)[C@H](O)[C@H]6O)C(C)(C)[C@@H]5CC[C@]43C)[C@@H]2C1`, the RLU in assay [1] was 0.33; in assay [2], 0.08; in assay [3], 0.22; in assay [4] it was 0.5.

For `C=CC(C)(O)CC/C=C(\C)CC/C=C(\C)CO[C@@H]1O[C@H](CO)[C@@H](O)[C@H](O)[C@H]1O` (some centres not stated), the RLU in assay [1] was found to be 0.26; in assay [2], 0.04; in assay [3], 0.21; in assay [4] it was 0.47.
